Test results from patent publication US4522824A, “Indole derivatives of tryptamine and cardiovascular compositions thereof” (Sanofi, priority 1982, dated 1985).
Where a name gives a salt, the structure may show the parent alone.

What was measured:
[1] = Cardiac frequency in the alert dog after oral administration; format: in vivo
Text: The different results on the cardiovascular system obtained in the anaesthetized dog have been confirmed for certain products in the alert dog after administration of the product by the oral route.

β-adrenergic receptors = experiment: Antagonism of the effects of isoprenaline (tachycardia) in the anaesthetized dog; format: in vivo; conditions: dose inhibiting 80% of the tachycardia induced by i.v. isoprenaline, intravenous
Description: (§1) In vivo pharmacological action in the dog
(§2) The dog is anaesthetized with sodium pentobarbital, administered by the intravenous route at the dose of 30 mg/kg. A cannula placed in the short saphenous vein allows the products to be injected intravenously. The animal is intubated and allowed to breathe spontaneously.
(§3) The cardiac frequency (C.F.) and the systemic arterial pressure (A.P.) and the parameter (dP/dt)p^-1 max which expresses the cardiac contractibility are recorded with the aid of catheters and the variations in these parameters are measured after intravenous injection of the product to be tested, each product being tested at increasing doses.
Antagonism of the effects of isoprenaline
The antagonism of the products with respect to the stimulating cardiovascular effects of isoprenaline on the β-adrenergic receptors was sought. The results are shown in Table II hereinafter and expressed in ID80 : this is the dose expressed in mg/kg which provokes inhibition of 80% of the tachycardia induced by the isoprenaline administered by the intravenous route.

[2] = In vivo pharmacological action in the anaesthetized dog (cardiac frequency, systemic arterial pressure, cardiac contractibility); conditions: Table II, parameter name is in the drawing [drawing 9], intravenous; for direct effect: first sign; for direct effect, [drawing 9]: second sign (wrapped to next line)
Description: as §1, §2, §3

α-adrenergic receptors = experiment: Antagonism of the effects of noradrenaline (pressive response) in the dog; format: in vivo; conditions: dose inhibiting 50% of the pressive response to i.v. noradrenaline
Description: as §1, §2, §3
Antagonism of the effects of noradrenaline
The antagonism of the products with respect to the vascular effects provoked by the intravenous administration of noradrenaline on the α-adrenergic receptors was sought. The results shown in Table II are expressed in ID50 : this is the dose (mg/kg) which provokes the inhibition of 50% of the pressive response due to the intravenous administration of noradrenaline.

[3] = Chronotropic effect in the dog subjected to reserpine and anaesthetized; format: in vivo; conditions: 1 mg/kg intravenous

CCOC(=O)c1cc2c(OCC(O)CNC(C)(C)Cc3c[nH]c4ccc(Cl)cc34)cccc2[nH]1 (stereo not drawn) [SR41780A]
effect on cardiac frequency [1]: decrease the cardiac frequency or are without action thereon

CC(C)(Cc1c[nH]c2ccccc12)NCC(O)COc1cccc2[nH]c(C(N)=O)cc12 (stereo not drawn) [CM41105]
ID80 isoprenaline, β-effect (β-adrenergic receptors): 0.1 mg/kg | direct effect [2]: weak .dwnarw. | direct effect, [drawing 9] [2]: .uparw.

CCCCN(CCCC)C(=O)c1cc2c(OCC(O)CNC(C)(C)Cc3c[nH]c4ccccc34)cccc2[nH]1 (stereo not drawn) [SR41830A]
ID80 isoprenaline, β-effect (β-adrenergic receptors): 1 mg/kg | direct effect, [drawing 9] [2]: .uparw.

CCOC(=O)c1cc2c(OCC(O)CNC(C)(C)Cc3c[nH]c4ccc(C)cc34)cccc2[nH]1 (stereo not drawn) [SR41716A]
effect on cardiac frequency [1]: decrease the cardiac frequency or are without action thereon

CC(C)(Cc1c[nH]c2ccccc12)NCC(O)COc1cccc2[nH]c(C(=O)O)cc12 (stereo not drawn) [SR41828A]
ID80 isoprenaline, β-effect (β-adrenergic receptors): 0.3 mg/kg | direct effect [2]: = or .dwnarw. | direct effect, [drawing 9] [2]: = | effect on cardiac frequency [1]: decrease the cardiac frequency or are without action thereon

CC(C)(Cc1c[nH]c2ccccc12)NCC(O)COc1cccc2[nH]c(CO)cc12 (stereo not drawn) [CM41165]
ID80 isoprenaline, β-effect (β-adrenergic receptors): 0.05 mg/kg | direct effect [2]: .dwnarw. | direct effect, [drawing 9] [2]: .dwnarw.

CC(C)OC(=O)c1cc2c(OCC(O)CNC(C)(C)Cc3c[nH]c4ccccc34)cccc2[nH]1 (stereo not drawn) [SR41719A]
effect on cardiac frequency [1]: decrease the cardiac frequency or are without action thereon

CCOC(=O)c1cc2c(OCC(O)CNC(C)(C)Cc3c[nH]c4ccc(OC)cc34)cccc2[nH]1 (stereo not drawn) [SR41648]
ID80 isoprenaline, β-effect (β-adrenergic receptors): 0.1 mg/kg | direct effect [2]: .dwnarw. | direct effect, [drawing 9] [2]: .dwnarw.

CCOC(=O)c1cc2c(OCC(O)CNC(C)(C)Cc3c[nH]c4ccc(F)cc34)cccc2[nH]1 (stereo not drawn) [SR41779A]
effect on cardiac frequency [1]: decrease the cardiac frequency or are without action thereon

CCOC(=O)c1cc2c(OCC(O)CNC(C)(C)Cc3c[nH]c4ccccc34)cccc2[nH]1 (stereo not drawn) [CM40593, 4-[3-[2-(3-indolyl)1,1-dimethylethylamino]2-hydroxypropoxy]2-ethoxycarbonyl indole]
ID80 isoprenaline, β-effect (β-adrenergic receptors): 0.1 mg/kg | ID50 (α-adrenergic receptors): 0.1 mg/kg | direct effect [2]: = or .dwnarw. | direct effect, [drawing 9] [2]: .uparw. | chronotropic effect [3]: slight positive chronotropic effect

CC(C)(Cc1c[nH]c2ccccc12)NCC(O)COc1cccc2[nH]c(C#N)cc12 (stereo not drawn) [SR41370A]
ID80 isoprenaline, β-effect (β-adrenergic receptors): 0.05 mg/kg | direct effect [2]: weak .dwnarw. | direct effect, [drawing 9] [2]: .uparw.

CCOC(=O)c1cc2c(OCC(O)CNC(C)(C)Cc3c[nH]c4ccc(C#N)cc34)cccc2[nH]1 (stereo not drawn) [SR41831A, 4-[3-[(5-cyano 3-indolyl)1,1-dimethylethylamino]2-hydroxypropoxy]2-ethoxycarbonyl indole, neutral fumarate]
ID80 isoprenaline, β-effect (β-adrenergic receptors): 0.1 mg/kg | direct effect [2]: .dwnarw. | direct effect, [drawing 9] [2]: .dwnarw.

CCOC(=O)c1cc2c(OCC(O)CNC(C)(CO)Cc3c[nH]c4ccccc34)cccc2[nH]1 (stereo not drawn) [SR41832]
ID80 isoprenaline, β-effect (β-adrenergic receptors): 0.1 mg/kg | direct effect [2]: .dwnarw. | direct effect, [drawing 9] [2]: .dwnarw.

CCOC(=O)c1cc2c(OCC(O)CNC(C)Cc3c[nH]c4ccccc34)cccc2[nH]1 (racemic) [SR41294A]
ID80 isoprenaline, β-effect (β-adrenergic receptors): 0.1 mg/kg | direct effect [2]: .dwnarw. | direct effect, [drawing 9] [2]: .dwnarw.
